In patent US9663457B2, “Carbamoyl hydrazine derivatives as formyl peptide modulators” (Allergan, Inc., priority 2014, dated 2017) one finds EC50 and Emax data, which are given here for 17 compounds.

The assay concerns the target T1, FPR2 (Homo sapiens, UniProt P25090).
T1 construct: expressed in transfected cells; host or cells: HEK-Gα16, CHO-Gα16 and HEK-Gqi5 cells stably expressing FPR2
T1 sequence (P25090 1-351): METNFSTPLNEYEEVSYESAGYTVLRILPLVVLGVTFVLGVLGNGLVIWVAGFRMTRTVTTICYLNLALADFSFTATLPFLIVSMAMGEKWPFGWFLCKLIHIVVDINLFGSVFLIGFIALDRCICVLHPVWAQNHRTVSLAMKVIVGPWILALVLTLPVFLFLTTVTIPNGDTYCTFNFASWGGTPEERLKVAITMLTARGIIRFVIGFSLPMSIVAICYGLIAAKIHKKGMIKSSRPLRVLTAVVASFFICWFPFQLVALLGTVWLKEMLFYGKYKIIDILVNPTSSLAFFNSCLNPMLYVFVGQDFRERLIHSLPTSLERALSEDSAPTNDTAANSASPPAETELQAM
Briefly: FPR2 compound-induced calcium activity assay on FLIPR Tetra. It is filed as cell-based. As to conditions: HEK-Gα16, CHO-Gα16 or HEK-Gqi5 cells stably expressing FPR2, tested at 0.61 to 10,000 nM; for Emax: read-out: % Efficacy. Here is the method:
Compounds of Formula I modulate FPR activity. […] HEK-Gα16 and CHO-Gα16 cells stably expressing FPR2 were cultured in (F12, 10% FBS, 1% PSA, 400 μg/ml geneticin and 50 μg/ml hygromycin) and HEK-Gqi5 cells stable expressing FPR2 were cultured in (DMEM high glucose, 10% FBS, 1% PSA, 400 μg/ml geneticin and 50 μg/ml hygromycin). In general, the day before the experiment, 18,000 cells/well were plated in a 384-well clear bottom poly-D-lysine coated plate. The following day, the screening compound-induced calcium activity was assayed on the FLIPR^Tetra. The drug plates were prepared in 384-well microplates using the EP3 and the MuItiPROBE robotic liquid handling systems. Compounds were tested at concentrations ranging from 0.61 to 10,000 nM. Results are expressed as EC50 (nM) and efficacy values.

On to `CCOC(=O)CCC(=O)N(CC(C)C)NC(=O)Nc1ccc(Br)cc1` [Compound 7, Ethyl 4-{2-[(4-Bromophenyl)carbamoyl]-1-(2-methylpropyl)hydrazinyl}-4-oxobutanoate], for which the EC50 worked out at 31 nM and the Emax was found to be 100%.

Consider `CCC(CC)(CC(=O)NNC(=O)Nc1ccc(Br)cc1)C(=O)O` [Compound 6, 4-{2-[(4-bromophenyl)carbamoyl]hydrazinyl}-2,2-diethyl-4-oxobutanoic acid], for which the EC50 was found to be 421 nM and the Emax came out at 73%.

As to `CCCN(NC(=O)Nc1ccc(Br)cc1F)C(=O)CCC(=O)OCC` [Compound 16, ethyl 4-{2-[(4-bromo-2-fluorophenyl)carbamoyl]-1-propylhydrazinyl}-4-oxobutanoate], the EC50 is 34 nM and the Emax is 100%.

Regarding `CC(C)(CC(=O)NNC(=O)Nc1ccc(Br)cc1)C(=O)O` [Compound 3, 4-{2-[(4-bromophenyl)carbamoyl]hydrazinyl}-2,2-dimethyl-4-oxobutanoic acid], the EC50 is 602 nM and the Emax turned out to be 86%.

Turning to `CCCC(CCC)(CC(=O)NNC(=O)Nc1ccc(Br)cc1)C(=O)O` [Compound 5, 2-[2-(2-{[(4-Bromophenyl)amino]carbonyl}hydrazino)-2-oxoethyl]-2-propylpentanoic Acid], the half-maximal effective concentration (EC50) is 215 nM and the Emax is 87%.

Regarding `CCCN(NC(=O)Nc1ccc(Br)cc1F)C(=O)CCC(=O)O` [Compound 17, 4-{2-[(4-bromo-2-fluorophenyl)carbamoyl]-1-propylhydrazinyl}-4-oxobutanoic acid], the 50% effective concentration (EC50) came out at 29 nM and the Emax was 100%.

Take `CCCN(NC(=O)Nc1ccc(C(F)(F)F)cc1)C(=O)CCC(=O)O` [Compound 14, 4-oxo-4-(1-propyl-2-{[4-(trifluoromethyl)phenyl]carbamoyl}hydrazinyl)butanoic acid]: the EC50 turned out to be 28 nM and the Emax is 97%.

On to `CC(C)CN(NC(=O)Nc1ccc(C(F)(F)F)cc1)C(=O)CCC(=O)O` [Compound 12, 4-[1-(2-methylpropyl)-2-{[4-(trifluoromethyl)phenyl]carbamoyl}hydrazinyl]-4-oxobutanoic acid], for which the EC50 is 21 nM and the Emax worked out at 98%.

As to `CC(C)(C(=O)O)C(=O)NNC(=O)Nc1ccc(Br)cc1` [Compound 2, 3-{2-[(4-Bromophenyl)carbamoyl]hydrazinyl}-2,2-dimethyl-3-oxopropanoic Acid], the EC50 came out at 5210 nM and the Emax amounted to 73%.

Regarding `CCCN(NC(=O)Nc1ccc(C(F)(F)F)cc1)C(=O)CCC(=O)OCC` [Compound 13, ethyl 4-oxo-4-(1-propyl-2-{[4-(trifluoromethyl)phenyl]carbamoyl}hydrazinyl)butanoate], the EC50 came to 35 nM and the Emax was 98%.

Regarding `CCOC(=O)CCC(=O)N(CC(C)C)NC(=O)Nc1ccc(C(F)(F)F)cc1` [Compound 11, ethyl 4-[1-(2-methylpropyl) 2{[4-(trifluoromethyl)phenyl]carbamoyl}hydrazinyl]-4-oxobutanoate], the EC50 stood at 57 nM and the Emax came out at 94%.

Regarding `CC(C)CN(NC(=O)Nc1ccc(Br)cc1)C(=O)CCC(=O)O` [Compound 8, 4-{2-[(4-Bromophenyl)carbamoyl]-1-(2-methylpropyl)hydrazinyl}-4-oxobutanoic Acid], the EC50 is 12 nM and the Emax was 100%.

Consider `CC(C)CN(NC(=O)Nc1ccc(Br)cc1F)C(=O)CCC(=O)O` [Compound 10, 4-{2-[(4-bromo-2-fluorophenyl)carbamoyl]-1-(2-methylpropyl)hydrazinyl}-4-oxobutanoic acid], for which the EC50 was found to be 339 nM and the Emax turned out to be 99%.

On to `CCOC(=O)CC(=O)NNC(=O)Nc1ccc(Br)cc1` [Compound 1, Ethyl 3-{2[(4-bromophenyl)carbamoyl]hydrazinyl}-3-oxopropanoate], for which the EC50 was found to be 750 nM and the Emax amounted to 100%.

In the case of `CCOC(=O)CCC(=O)N(CC(C)C)NC(=O)Nc1ccc(Br)cc1F` [Compound 9, ethyl 4-{2-[(4-bromo-2-fluorophenyl)carbamoyl]-1-(2-methylpropyl)hydrazinyl}-4-oxobutanoate], the EC50 turned out to be 3660 nM and the Emax is 76%.

Regarding `CCCCN(NC(=O)Nc1ccc(Br)cc1)C(=O)CCC(=O)OCC` [Compound 15, ethyl 4-{2-[(4-bromophenyl)carbamoyl]-1-butylhydrazinyl}-4-oxobutanoate], the EC50 came out at 34 nM and the Emax is 100%.

With `CCCC(CCC)(CC(=O)NNC(=O)Nc1ccc(Br)cc1)C(=O)OC` [Compound 4, methyl 2-(2-{2-[(4-bromophenyl)carbamoyl]hydrazinyl}-2-oxoethyl)-2-propylpentanoate], the EC50 came out at 46 nM and the Emax stood at 89%.

The EC50 is the concentration that produces a half-maximal response.
